Test results taken from ChEMBL document CHEMBL1134022, “2-Acylimino-3H-thiazoline derivatives: a novel template for platelet GPIIb/IIIa receptor antagonists” (Bioorg Med Chem Lett, 2001).

What was measured:
[1] = biological target: T1, Integrin alpha-IIb/beta-3 (Homo sapiens, UniProt P05106+P08514); test: Affinity for purified activated GPIIb/IIIa fibrinogen receptor in ELISA; assay type: protein-complex assay
[2] = biological target: T1, Integrin alpha-IIb/beta-3; test: Binding to [125I]- fibrinogen by washed platelet fibrinogen receptor

T1 sequence (P05106 27-788 limits assumed): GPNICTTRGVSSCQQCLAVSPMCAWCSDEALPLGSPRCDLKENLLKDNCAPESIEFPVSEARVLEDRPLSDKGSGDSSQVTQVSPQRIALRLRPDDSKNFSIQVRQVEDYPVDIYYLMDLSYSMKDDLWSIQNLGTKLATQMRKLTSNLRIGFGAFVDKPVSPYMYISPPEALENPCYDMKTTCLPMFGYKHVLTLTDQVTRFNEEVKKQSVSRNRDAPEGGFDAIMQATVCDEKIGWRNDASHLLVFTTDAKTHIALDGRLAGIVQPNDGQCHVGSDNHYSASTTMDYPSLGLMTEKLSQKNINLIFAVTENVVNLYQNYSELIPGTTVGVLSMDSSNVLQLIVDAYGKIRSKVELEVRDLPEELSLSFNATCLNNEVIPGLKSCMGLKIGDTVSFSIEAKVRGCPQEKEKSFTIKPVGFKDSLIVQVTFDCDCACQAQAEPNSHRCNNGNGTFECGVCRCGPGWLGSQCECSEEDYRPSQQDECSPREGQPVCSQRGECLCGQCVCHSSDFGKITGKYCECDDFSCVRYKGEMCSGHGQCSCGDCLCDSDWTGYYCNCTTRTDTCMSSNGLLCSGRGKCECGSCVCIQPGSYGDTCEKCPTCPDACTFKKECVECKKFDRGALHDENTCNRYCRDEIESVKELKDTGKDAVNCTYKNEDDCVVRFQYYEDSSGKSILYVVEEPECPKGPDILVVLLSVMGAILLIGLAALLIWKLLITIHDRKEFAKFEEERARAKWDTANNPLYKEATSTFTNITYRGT
T1 sequence (P08514 32-887 limits assumed): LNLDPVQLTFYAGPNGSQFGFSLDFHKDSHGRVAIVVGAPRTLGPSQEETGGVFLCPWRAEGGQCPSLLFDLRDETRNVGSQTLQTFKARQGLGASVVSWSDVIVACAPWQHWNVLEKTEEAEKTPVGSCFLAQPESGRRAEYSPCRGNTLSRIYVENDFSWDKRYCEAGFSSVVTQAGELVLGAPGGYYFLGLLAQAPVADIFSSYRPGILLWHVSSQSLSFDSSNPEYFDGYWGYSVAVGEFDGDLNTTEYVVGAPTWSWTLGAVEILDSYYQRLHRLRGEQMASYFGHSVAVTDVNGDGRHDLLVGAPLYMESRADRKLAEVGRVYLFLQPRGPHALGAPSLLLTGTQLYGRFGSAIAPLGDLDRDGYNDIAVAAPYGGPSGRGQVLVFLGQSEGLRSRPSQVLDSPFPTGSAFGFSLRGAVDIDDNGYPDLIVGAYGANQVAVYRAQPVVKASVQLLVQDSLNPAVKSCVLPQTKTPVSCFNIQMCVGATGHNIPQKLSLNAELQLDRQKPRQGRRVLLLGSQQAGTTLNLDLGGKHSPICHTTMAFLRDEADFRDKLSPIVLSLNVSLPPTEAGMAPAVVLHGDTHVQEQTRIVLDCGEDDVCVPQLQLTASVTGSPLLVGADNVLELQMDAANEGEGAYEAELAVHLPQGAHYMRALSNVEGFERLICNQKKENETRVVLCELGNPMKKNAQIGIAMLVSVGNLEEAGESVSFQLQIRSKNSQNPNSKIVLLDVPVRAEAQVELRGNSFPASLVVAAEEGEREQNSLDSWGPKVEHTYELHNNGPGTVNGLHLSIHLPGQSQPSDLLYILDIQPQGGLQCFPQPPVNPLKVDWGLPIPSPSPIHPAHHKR
T1 sequence (P08514 891-1039 limits assumed): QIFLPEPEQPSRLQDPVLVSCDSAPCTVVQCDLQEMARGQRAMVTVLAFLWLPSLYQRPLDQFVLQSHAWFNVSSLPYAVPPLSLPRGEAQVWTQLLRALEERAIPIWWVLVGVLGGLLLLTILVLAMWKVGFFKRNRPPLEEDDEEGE

| Compound | IC50 [1] | IC50 [2] |
| --- | --- | --- |
| Cc1c(C(=O)N(C)CCC(=O)O)s/c(=N\C(=O)c2ccc(C(=N)N)cc2)n1C | 0.89 nM | 51.8 nM |
| Cc1c(C(=O)NCCC(=O)O)s/c(=N\C(=O)c2ccc(C(=N)N)cc2)n1Cc1ccccc1 | 0.09 nM | – |
| CCCCn1c(C)c(C(=O)NCCC(=O)O)s/c1=N\C(=O)c1ccc(C(=N)N)cc1 | 0.13 nM | 6.26 nM |
| CCn1c(C)c(C(=O)NCCC(=O)O)s/c1=N\C(=O)c1ccc(C(=N)N)cc1 | 0.12 nM | – |
| Cn1c2c(s/c1=N\C(=O)c1ccc(C(=N)N)cc1)C(=O)N(CCC(=O)O)C2 | 4.76 nM | 67.9 nM |
| Cc1nc(N(C)C(=O)c2ccc(C(=N)N)cc2)sc1CCC(=O)O | 1 nM | – |
| Cc1nc(NC(=O)c2ccc(C(=N)N)cc2)sc1CCC(=O)O | 0.57 nM | 60.5 nM |
| N=C(N)c1ccc(C(=O)Nc2cccc(CCC(=O)O)c2)cc1 | 0.55 nM | 105 nM |
